Measured values: US10227345B2, “Compounds and methods for inhibiting fascin” (Cornell University, priority 2014, dated 2019)

Target: T1, human fascin 1 (Homo sapiens, UniProt Q16658)
T1 construct: GST (N, cleaved yes); made in house; host or cells: Escherichia coli BL21/DE3 (pGEX4T-fascin 1 plasmid)
Experiment: Fascin inhibition (actin bundling) assay, image-based
Type: biochemical
Conditions: in the presence of 50 μm of the compound relative to bundle activity when the compound was not present; read-out: Inhibition (percentage reduction of bundle activity)
Experimental: Recombinant human fascin 1 was expressed as a GST fusion protein in BL21 Escherichia coli. One liter of 2YT medium with ampicillin was inoculated overnight with 3 mL of BL21/DE3 culture transformed with pGEX4T-fascin 1 plasmid and grown at 37° C. until attenuance at 600 nm (D600) reached about 0.8. The culture was then transferred to 18° C. and induced by the addition of 0.1 mM isopropyl β-d-thiogalactoside (IPTG) for 12 h. Bacteria were harvested by centrifugation at 5,000 r.p.m. for 10 min. The pellets were suspended in 30 mL of PBS supplemented with 0.2 mM PMSF, 1 mM DTT, 1% (v/v) Triton X-100 and 1 mM EDTA. After sonication, the suspension was centrifuged at 15,000 r.p.m. for 30 min to remove the cell debris. The supernatant was then incubated for 2 h with 4 mL of glutathione beads (Sigma) at 4° C. After extensive washing with PBS, the beads were resuspended in 10 mL of thrombin cleavage buffer (20 mM Tris-HCl pH 8.0, 150 mM NaCl, 2 mM CaCl2, 1 mM DTT). Fascin was released from the beads by incubation overnight with 40-100 U of thrombin at 4° C. After centrifugation, 0.2 mM PMSF was added to the supernatant to inactivate the remnant thrombin activity. The fascin protein was further concentrated with a Centricon® (Boca Raton, Fla.) filter to about 50 mg/mL.
Representative compounds described herein were tested for fascin inhibition activity. Purified fascin protein (15 μL of 0.5 μM) in buffer (100 mM KCl, 20 mM Tris/HCl, pH 7.5, 2 mM MgCl2) was added into each well of a clear 384-well flat-bottom plate (Corning) using Thermo Multidrop Combi (Fisher). Compound solutions (5 mM stock, 180 nL) were pin transferred from stock 384-well plates into the 384-well assay plates and incubated for 30 min. Then 15 μL of 0.5 μM polymerized actin (in 100 mM KCl, 20 mM Tris/HCl, pH 7.5, 2 mM MgCl2, 1 mM DTT, 1 mM ATP) (Cytoskeleton Inc.) was added, resulting in 30 μM final concentration for chemical compounds. […] Mixed solution (25 μL) was then transferred to one well in a black 384-well plate coated with poly-D-lysine, and stained actin bundles or F-actin would stick onto the poly-D-lysine plates. After the plates were thoroughly washed with 1×PBS for 3 times, the plate was imaged using an ImageXpress Micro High Content Screening System (Molecular devices). The images were processed and analyzed using MetaMorph software. The raw image data for each well was background-corrected by subtraction of the median intensities across all wells on the plate. The background-corrected data was used to compute the bundle length for each well. The negative control wells were employed for quality control: multiple DMSO-only control wells (16 wells/plate) were present on each assay plate.

inhibition at 50 µM | SMILES
< 10% | N#Cc1ccc(Cn2nc(NC(=O)c3cccnn3)c3ccccc32)cc1 [Compound 90, N-(1-(4-cyanobenzyl)-1H-indazol-3-yl)pyridazine-3-carboxamide]
< 10% | Cc1ncsc1C(=O)Nc1nn(Cc2ccc(C(F)(F)F)nc2)c2ccccc12 [Compound 95, 4-methyl-N-(1-((6-(trifluoromethyl)pyridin-3-yl)methyl)-1H-indazol-3-yl)thiazole-5-carboxamide]
80% | Cc1ncoc1C(=O)Nc1nn(Cc2ccc(C(F)(F)F)cc2)c2ccccc12 [Compound 34, 4-methyl-N-(1-(4-(trifluoromethyl)benzyl)-1H-indazol-3-yl)oxazole-5-carboxamide]
< 10% | COc1cscc1C(=O)Nc1nn(Cc2ccc(C(F)(F)F)cc2)c2ccccc12 [Compound 51, 4-methoxy-N-(1-(4-(trifluoromethyl)benzyl)-1H-indazol-3-yl)thiophene-3-carboxamide]
< 10% | O=C(Nc1nn(Cc2ccc(C(F)(F)F)cc2)c2ccccc12)c1ccccc1OC(F)(F)F [Compound 52, 2-(trifluoromethoxy)-N-(1-(4-(trifluoromethyl)benzyl)-1H-indazol-3-yl)benzamide]
< 10% | O=C(Nc1nn(Cc2ccc(C(F)(F)F)cc2)c2ccccc12)c1cnccn1 [Compound 53, N-(1-(4-(trifluoromethyl)benzyl)-1H-indazol-3-yl)pyrazine-2-carboxamide]
< 10% | Cc1occc1C(=O)Nc1nn(Cc2ccc(C(F)(F)F)cc2)c2cc(C(F)(F)F)ccc12 [Compound 109]
< 10% | Cc1ncsc1C(=O)Nc1nn(Cc2ccc(C(F)(F)F)cc2)c2cc(C(F)(F)F)ccc12 [Compound 110, 4-methyl-N-(6-(trifluoromethyl)-1-(4-(trifluoromethyl)benzyl)-1H-indazol-3-yl)thiazole-5-carboxamide]
< 10% | Cc1ccc(Cn2nc(NC(=O)c3scnc3C)c3ccccc32)cc1 [Compound 82, 4-methyl-N-(1-(4-methylbenzyl)-1H-indazol-3-yl)thiazole-5-carboxamide]
< 10% | O=C(Nc1nn(Cc2ccc(C(F)(F)F)cc2)c2ccccc12)c1cscn1 [Compound 30, N-(1-(4-(trifluoromethyl)benzyl)-1H-indazol-3-yl)thiazole-4-carboxamide]
< 10% | Cc1ccc(Cn2nc(NC(=O)c3cccnn3)c3ccccc32)cc1 [Compound 83, N-(1-(4-methylbenzyl)-1H-indazol-3-yl)pyridazine-3-carboxamide]
< 10% | Cc1ccoc1C(=O)Nc1nn(Cc2ccc(C(F)(F)F)cc2)c2ccccc12 [Compound 29, 3-methyl-N-(1-(4-(trifluoromethyl)benzyl)-1H-indazol-3-yl)furan-2-carboxamide]
< 10% | Cc1nocc1C(=O)Nc1nn(Cc2ccc(C#N)cc2)c2ccccc12 [Compound 86, N-(1-(4-cyanobenzyl)-1H-indazol-3-yl)-3-methylisoxazole-4-carboxamide]
< 10% | O=C(Nc1nn(Cc2ccc(C(F)(F)F)cc2)c2ccccc12)c1ccccc1F [Compound 12, 2-fluoro-N-(1-(4-(trifluoromethyl)benzyl)-1H-indazol-3-yl)benzamide]
60% | O=C(Nc1nn(Cc2ccc(C(F)(F)F)cc2)c2ccccc12)c1cccs1 [Compound 9, N-(1-(4-(trifluoromethyl)benzyl)-1H-indazol-3-yl)thiophene-2-carboxamide]
50% | O=C(Nc1nn(Cc2ccc(C(F)(F)F)cc2)c2ccccc12)c1ccccc1Cl [Compound 5, 2-chloro-N-(1-(4-(trifluoromethyl)benzyl)-1H-indazol-3-yl)benzamide]
10% | CNc1nn(Cc2ccc(C(F)(F)F)cc2)c2cncc(Cl)c12 [Compound 149]
10% | Cc1occc1C(=O)Nc1nn(Cc2ccc(C(F)(F)F)cc2)c2cncc(Cl)c12 [Compound 141, N-(4-chloro-1-(4-(trifluoromethyl)benzyl)-1H-pyrazolo[3,4-c]pyridin-3-yl)-2-methylfuran-3-carboxamide]

inhibition at 50 µM | SMILES
< 10% | O=C(Nc1nn(Cc2ccc(C(F)(F)F)cc2)c2ccccc12)c1ccccc1Br [Compound 46, 2-bromo-N-(1-(4-(trifluoromethyl)benzyl)-1H-indazol-3-yl)benzamide]
< 10% | O=C(Nc1nn(Cc2ccc(C(F)(F)F)cc2)c2ccccc12)c1ccc(F)cc1 [Compound 13]
< 10% | Nc1nn(Cc2ccc(Cl)cc2)c2ccccc12 [Compound 63, 1-(4-chlorobenzyl)-1H-indazol-3-amine]
< 10% | O=C(Nc1nn(Cc2cccc(C(F)(F)F)c2)c2ccccc12)c1ccoc1 [Compound 48, N-(1-(3-(trifluoromethyl)benzyl)-1H-indazol-3-yl)furan-3-carboxamide]
50% | Cc1ccc(Cn2nc(NC(=O)c3ccno3)c3ccccc32)cc1 [Compound 80, N-(1-(4-methylbenzyl)-1H-indazol-3-yl)isoxazole-5-carboxamide]
< 10% | Cc1ccc2c(NC(=O)c3conc3C)nn(Cc3ccc(C(F)(F)F)cc3)c2n1 [Compound 133, 3-methyl-N-(6-methyl-1-(4-(trifluoromethyl)benzyl)-1H-pyrazolo[3,4-b]pyridin-3-yl)isoxazole-4-carboxamide]
< 10% | O=C(Nc1cn(Cc2ccc(C(F)(F)F)cc2)c2ccccc12)c1ccoc1 [Compound 105, N-(1-(4-(trifluoromethyl)benzyl)-1H-indol-3-yl)furan-3-carboxamide]
< 10% | Cc1ncsc1C(=O)Nc1nn(Cc2ccc(C(F)(F)F)cc2)c2ccc(C(F)(F)F)cc12 [Compound 126, 4-methyl-N-(5-(trifluoromethyl)-1-(4-(trifluoromethyl)-bemzyl)-1H-indazol-3-yl)thiazole-5-carboxamide]
< 10% | Nc1nn(Cc2ccc(C(F)(F)F)nc2)c2ccccc12 [Compound 91, 1-((6-(trifluoromethyl)pyridine-3-yl)methyl)-1H-indazol-3-amine]
< 10% | O=C(Nc1nn(Cc2ccc(C(F)(F)F)cc2)c2cccc(Cl)c12)c1ccoc1 [Compound 117, N-(4-chloro-1-(4-(trifluoromethyl)benzyl)-1H-indazol-3-yl)furan-3-carboxamide]
60% | Cc1ocnc1C(=O)Nc1nn(Cc2ccc(C(F)(F)F)cc2)c2ccccc12 [Compound 31, 5-methyl-N-(1-(4-(trifluoromethyl)benzyl)-1H-indazol-3-yl)oxazole-4-carboxamide]
50% | Cc1occc1C(=O)Nc1nn(Cc2ccc(Cl)cc2)c2ccccc12 [Compound 67, N-(1-(4-chlorobenzyl)-1H-indazol-3-yl)-2-methylfuran-3-carboxamide]
10% | CC(=O)Nc1nn(Cc2ccc(C(F)(F)F)cc2)c2cncc(Cl)c12 [Compound 150, N-(1-(4-(trifluoromethyl)benzyl)-4-chloro-1H-pyrazolo(3,4-c)pyridyl)-3-acetamide]
50% | O=C(Nc1nn(Cc2ccc(Cl)cc2)c2ccccc12)c1ccoc1 [Compound 64, N-(1-(4-chlorobenzyl)-1H-indazol-3-yl)furan-3-carboxamide]
< 10% | Cc1ccc(Cn2nc(NC(=O)c3ccoc3)c3ccccc32)cc1 [Compound 78, N-(1-(4-methylbenzyl)-1H-indazol-3-yl)furan-3-carboxamide]
100% | O=C(Nc1nn(Cc2ccc(C(F)(F)F)cc2)c2ccccc12)c1cnco1 [Compound 40, N-(1-(4-(trifluoromethyl)benzyl)-1H-indazol-3-yl)oxazole-5-carboxamide]
< 10% | Cc1occc1C(=O)Nc1nn(Cc2ccc(F)cc2)c2ccccc12 [Compound 74, N-(1-(4-fluorobenzyl)-1H-indazol-3-yl)-2-methylfuran-3-carboxamide]
< 10% | N#Cc1ccc(Cn2nc(NC(=O)c3ccno3)c3ccccc32)cc1 [Compound 87, N-(1-(4-cyanobenzyl)-1H-indazol-3-yl)isoxazole-5-carboxamide]
